US20220315888A1, “CULTURE METHOD FOR RETINAL ORGANOIDS” (University of Newcastle Upon Tyne, priority 2019, published 2022)
“Also recorded” adds a separate entry of the source.

Tests used:
Format in all cases: cell-based, human
[1] = tested on: Rhodopsin expression in retinal organoids derived from hESCs; test: Immunohistochemistry quantification of Rhodopsin+ cells (rods) at day 150; settings: addition day 90-120, organoids at day 150, compared to vehicle control
Protocol: Human Pluripotent Stem Cells differentiation to retinal organoids Retinal organoids were differentiated from the CRX-GFP H9 human ESC cell line using a feeder-free system. ESCs were expanded in […] Technologies, 05850) at 37° C. and 5% CO2 on 6 well plates pre-coated with Low Growth Factor Matrigel (Corning, 354230). The retinal organoids were generated following a protocol described in Collin et al., 2019 [25] with addition of various supplements, which are shown in FIG. 1. […] DAPT was only added from day 30-42 (for day 30-60 combined addition with RA from day 30-60), day 60-72 (for the combined addition with RA from day 60-90), day 90-102 (for the combined addition with RA from day 90-120) and day 30-42 (for the combined addition with RA from day 30-120). Retinal organoids were collected on day 150 and fixed in 2% PFA for 30 minutes, followed by three washes in Phosphate-buffered saline (PBS), incubated overnight in 30% sucrose in PBS, embedded in Optical Cutting medium (OCT) ([…], UK) and frozen at -20° C. Ten-micrometre cryostat sections were collected using a Leica Cm1860 cryostat (Leica, Germany) onto Superfrost Plus slides and stored at -20° C. in slide boxes prior to immunostaining. Cryosections were air-dried, washed several times in PBS and incubated in blocking solution (10% normal goat serum, 0.3% Triton-X-100 in PBS) for one hour at room temperature. Slides were incubated with the appropriate primary antibody overnight at 4° C. (Table 2). After rinsing with PBS, sections were incubated with the secondary antibody for 2 hours at room temperature. Alexa Fluor 647 and 546 secondary antibodies (InvitrogenMolecular Probes) were used at a 1:1000 dilution. Negative controls were carried out by omitting the primary antibody. Afterwards, sections were washed three times in PBS and mounted with Vectashield (Vector Laboratories, Burlingame, Calif.) containing Hoechst (LifeTechnologies, UK). Images were captured using an Axio Imager upright microscope with Apotome (Zeiss, Germany) structured illumination fluorescence using 20× objective and 63× oil objective operated with AxioVision software. Final images are presented as a maximum projection and adjusted for brightness and contrast in Adobe Photoshop (Adobe Systems). Cell image quantitation was performed using the MATLAB software (Mathworks, MA) following the protocol described in Dorgau et al., 2019 [26]. A minimum of eight individual retinal organoids were analysed for each condition. All results were further analysed using Microsoft Excel and Prism (GraphPad, USA).

retinal organoids = test: Retinal organoid lamination and tissue architecture at day 150; settings: day 150 of differentiation
Protocol: (§1) Human Pluripotent Stem Cells differentiation to retinal organoids Retinal organoids were differentiated from the CRX-GFP H9 human ESC cell line using a feeder-free system. ESCs were expanded in mTeSR™1 (StemCell Technologies, 05850) at 37° C. and 5% CO2 on 6 well plates pre-coated with Low Growth Factor Matrigel (Corning, 354230). The retinal organoids were generated following a protocol described in Collin et al., 2019 [25] with addition of various supplements, which are shown in FIG. 1.
The tested supplements include Retinoic Acid (RA) (0.5 μM or 1 μM Sigma-Aldrich UK), 9-cis-retinal (0.5 μM, Sigma-Aldrich UK), 11-cis-retinal (0.5 μM, BOC Sciences), Levodopa (0.5 μM, Sigma-Aldrich UK), Triiodothyronine (T3) (20 ng/ml or 40 ng/ml, Sigma-Aldrich) and DAPT (10 μM Sigma-Aldrich UK) singly or in combination with each other from day 18 of differentiation for specific durations (day 18 onwards, day 30-60, day 60-90, day 90-120 and day 30-120), except for DAPT (FIG. 1). […]
(§2) Images were captured using an Axio Imager upright microscope with Apotome (Zeiss, Germany) structured illumination fluorescence using 20× objective and 63× oil objective operated with AxioVision software. […]

[2] = tested on: OPN1MW/LW (L/M cones) expression in retinal organoids derived from hESCs; test: Immunohistochemistry quantification of OPN1MW/LW+ cells (L/M cones) at day 150; settings: addition day 30-120; organoids at day 150; compared to vehicle control
Protocol: as §1, with “1. […]” for “1.”
as §2
Cell image quantitation was performed using the MATLAB software (Mathworks, MA) following the protocol described in Dorgau et al., 2019 [26]. A minimum of eight individual retinal organoids were analysed for each condition. All results were further analysed using Microsoft Excel and Prism (GraphPad, USA).

Row | Structure (SMILES) | Rhodopsin+ cells (rods), immunohistochemistry quantification [1] | Effect on tissue architecture and lamination of the retinal organoids (retinal organoids) | Rhodopsin+ cells (rods), immunohistochemistry quantification ([1]; listed as RA alone) | OPN1MW/LW+ cells (L/M cones), IHC quantification [2]
1 | CC1=C(/C=C/C(C)=C\C=C\C(C)=C\C=O)C(C)(C)CCC1 [9-cis-retinal] | lower | – | – | –
2 | CC1=C(/C=C/C(C)=C/C=C/C(C)=C/C=O)C(C)(C)CCC1 [11-cis-retinal] | lower; also recorded: reduction | – | – | –
3 | C[C@H](NC(=O)Cc1cc(F)cc(F)c1)C(=O)N[C@H](C(=O)OC(C)(C)C)c1ccccc1 [DAPT] | – | did not interfere | – | –
4 | CC1=C(/C=C/C(C)=C/C=C/C(C)=C/C(=O)O)C(C)(C)CCC1 [RA, all-trans-retinoic acid] | reduction | – | lower | significantly enhanced
